Laboratory results from PubChem BioAssay (NCI).
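Where inhibition never reached the appropriate level, the endpoint shown equals the highest concentration tested. Otherwise, values were interpolated linearly from a five-concentration, 48-hour dose response in 96-well plates. GI50 = concentration required for 50% inhibition of growth. TGI marks complete inhibition of growth.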

Assays:
Assay in all cases: NCI anticancer screen, dose series, 48 h
786-0 renal = test system: 786-0 renal
A498 renal = test system: A498 renal
A549 NSCLC = test system: A549 NSCLC
ACHN renal = test system: ACHN renal
BT-549 breast = test system: BT-549 breast
CAKI-1 renal = test system: CAKI-1 renal
CCRF-CEM leukemia = test system: CCRF-CEM leukemia
COLO 205 colon = test system: COLO 205 colon
DU-145 prostate = test system: DU-145 prostate
EKVX NSCLC = test system: EKVX NSCLC
HCC-2998 colon = test system: HCC-2998 colon
HCT-116 colon = test system: HCT-116 colon
HCT-15 colon = test system: HCT-15 colon
HL-60(TB) leukemia = test system: HL-60(TB) leukemia
HOP-62 NSCLC = test system: HOP-62 NSCLC
HOP-92 NSCLC = test system: HOP-92 NSCLC
HS 578T breast = test system: HS 578T breast
HT29 colon = test system: HT29 colon
IGROV1 ovarian = test system: IGROV1 ovarian
K-562 leukemia = test system: K-562 leukemia
KM12 colon = test system: KM12 colon
LOX IMVI melanoma = test system: LOX IMVI melanoma
M14 melanoma = test system: M14 melanoma
MALME-3M melanoma = test system: MALME-3M melanoma
MCF7 breast = test system: MCF7 breast
MDA-MB-231 breast = test system: MDA-MB-231 breast
MDA-MB-435 = test system: MDA-MB-435
MOLT-4 leukemia = test system: MOLT-4 leukemia
NCI-H226 lung = test system: NCI-H226 lung
NCI-H23 lung = test system: NCI-H23 lung
NCI-H460 lung = test system: NCI-H460 lung
NCI-H522 lung = test system: NCI-H522 lung
NCI/ADR-RES ovarian = test system: NCI/ADR-RES ovarian
OVCAR-3 ovarian = test system: OVCAR-3 ovarian
OVCAR-4 ovarian = test system: OVCAR-4 ovarian
OVCAR-5 ovarian = test system: OVCAR-5 ovarian
OVCAR-8 ovarian = test system: OVCAR-8 ovarian
PC-3 prostate = test system: PC-3 prostate
RPMI-8226 leukemia = test system: RPMI-8226 leukemia
RXF 393 renal = test system: RXF 393 renal
SF-268 CNS = test system: SF-268 CNS
SF-295 CNS = test system: SF-295 CNS
SF-539 CNS = test system: SF-539 CNS
SK-MEL-2 melanoma = test system: SK-MEL-2 melanoma
SK-MEL-28 melanoma = test system: SK-MEL-28 melanoma
SK-MEL-5 melanoma = test system: SK-MEL-5 melanoma
SK-OV-3 ovarian = test system: SK-OV-3 ovarian
SN12C renal = test system: SN12C renal
SNB-75 CNS = test system: SNB-75 CNS
SR leukemia = test system: SR leukemia
SW-620 colon = test system: SW-620 colon
T-47D breast = test system: T-47D breast
TK-10 renal = test system: TK-10 renal
U251 CNS = test system: U251 CNS
UACC-62 melanoma = test system: UACC-62 melanoma
UO-31 renal = test system: UO-31 renal
SNB-19 CNS = test system: SNB-19 CNS
UACC-257 melanoma = test system: UACC-257 melanoma

Work on `CC/C=C/[C@@H]1C=C[C@@H]2CCC[C@H]2[C@@H]1CC[C@H](O)[C@H](C)N` yielded a GI50 (786-0 renal) of 1.72 µM, a TGI (786-0 renal) of 3.09 µM and a GI50 (A498 renal) of 1.62 µM. The TGI (A498 renal) was 5.58 µM, the GI50 (A549 NSCLC) was 2.26 µM and the TGI (A549 NSCLC) was 7.05 µM. The GI50 (ACHN renal) was 1.59 µM, the TGI (ACHN renal) was 2.94 µM and the GI50 (BT-549 breast) was 2.49 µM. The TGI (BT-549 breast) was 8.03 µM, the GI50 (CAKI-1 renal) was 3.73 µM and the TGI (CAKI-1 renal) was 20.5 µM. The GI50 (CCRF-CEM leukemia) was 4.65 µM, the TGI (CCRF-CEM leukemia) was 84.3 µM and the GI50 (COLO 205 colon) was 1.36 µM. The TGI (COLO 205 colon) was 2.64 µM, the GI50 (DU-145 prostate) was 1.93 µM and the TGI (DU-145 prostate) was 3.98 µM. For the same compound, the GI50 (EKVX NSCLC) was 15.2 µM, the TGI (EKVX NSCLC) was 31.9 µM and the GI50 (HCC-2998 colon) was 1.42 µM. The TGI (HCC-2998 colon) was 2.74 µM, the GI50 (HCT-116 colon) was 1.53 µM and the TGI (HCT-116 colon) was 2.86 µM. For the same compound, the GI50 (HCT-15 colon) was 1.54 µM, the TGI (HCT-15 colon) was 2.87 µM and the GI50 (HL-60(TB) leukemia) was 1.33 µM. For the same compound, the TGI (HL-60(TB) leukemia) was 2.91 µM, the GI50 (HOP-62 NSCLC) was 1.47 µM and the TGI (HOP-62 NSCLC) was 2.8 µM. It also gave a GI50 (HOP-92 NSCLC) of 1.41 µM, a TGI (HOP-92 NSCLC) of 3.89 µM and a GI50 (HS 578T breast) of 1.43 µM. For the same compound, the TGI (HS 578T breast) was 3.15 µM, the GI50 (HT29 colon) was 1.46 µM and the TGI (HT29 colon) was 2.77 µM. For the same compound, the GI50 (IGROV1 ovarian) was 1.5 µM, the TGI (IGROV1 ovarian) was 2.92 µM and the GI50 (K-562 leukemia) was 1.38 µM. For the same compound, the TGI (K-562 leukemia) was 2.67 µM, the GI50 (KM12 colon) was 1.7 µM and the TGI (KM12 colon) was 3.07 µM. The GI50 (LOX IMVI melanoma) was 1.58 µM, the TGI (LOX IMVI melanoma) was 2.92 µM and the GI50 (M14 melanoma) was 1.6 µM. The TGI (M14 melanoma) was 2.98 µM, the GI50 (MALME-3M melanoma) was 1.35 µM and the TGI (MALME-3M melanoma) was 2.95 µM. It also gave a GI50 (MCF7 breast) of 1.52 µM, a TGI (MCF7 breast) of 2.85 µM and a GI50 (MDA-MB-231 breast) of 1.78 µM. For the same compound, the TGI (MDA-MB-231 breast) was 3.22 µM, the GI50 (MDA-MB-435) was 1.7 µM and the TGI (MDA-MB-435) was 3.27 µM. The GI50 (MOLT-4 leukemia) was 1.72 µM, the TGI (MOLT-4 leukemia) was 3.68 µM and the GI50 (NCI-H226 lung) was 11.9 µM. For the same compound, the TGI (NCI-H226 lung) was 27.6 µM, the GI50 (NCI-H23 lung) was 1.78 µM and the TGI (NCI-H23 lung) was 3.98 µM. The GI50 (NCI-H460 lung) was 1.84 µM, the TGI (NCI-H460 lung) was 3.46 µM and the GI50 (NCI-H522 lung) was 1.82 µM. It also gave a TGI (NCI-H522 lung) of 3.99 µM, a GI50 (NCI/ADR-RES ovarian) of 1.97 µM and a TGI (NCI/ADR-RES ovarian) of 4.4 µM. It also gave a GI50 (OVCAR-3 ovarian) of 1.59 µM, a TGI (OVCAR-3 ovarian) of 2.93 µM and a GI50 (OVCAR-4 ovarian) of 1.83 µM. The TGI (OVCAR-4 ovarian) was 4.88 µM, the GI50 (OVCAR-5 ovarian) was 1.69 µM and the TGI (OVCAR-5 ovarian) was 3.55 µM. For the same compound, the GI50 (OVCAR-8 ovarian) was 2.3 µM, the TGI (OVCAR-8 ovarian) was 5.54 µM and the GI50 (PC-3 prostate) was 2.91 µM. For the same compound, the TGI (PC-3 prostate) was 12.5 µM, the GI50 (RPMI-8226 leukemia) was 3.07 µM and the TGI (RPMI-8226 leukemia) was 9.79 µM. For the same compound, the GI50 (RXF 393 renal) was 1.94 µM, the TGI (RXF 393 renal) was 4.17 µM and the GI50 (SF-268 CNS) was 1.71 µM. It also gave a TGI (SF-268 CNS) of 3.42 µM, a GI50 (SF-295 CNS) of 1.75 µM and a TGI (SF-295 CNS) of 3.9 µM. For the same compound, the GI50 (SF-539 CNS) was 1.67 µM, the TGI (SF-539 CNS) was 3.03 µM and the GI50 (SK-MEL-2 melanoma) was 2.11 µM. For the same compound, the TGI (SK-MEL-2 melanoma) was 4.73 µM, the GI50 (SK-MEL-28 melanoma) was 1.66 µM and the TGI (SK-MEL-28 melanoma) was 3.01 µM. For the same compound, the GI50 (SK-MEL-5 melanoma) was 1.69 µM, the TGI (SK-MEL-5 melanoma) was 3.16 µM and the GI50 (SK-OV-3 ovarian) was 1.69 µM. For the same compound, the TGI (SK-OV-3 ovarian) was 4.15 µM, the GI50 (SN12C renal) was 4.25 µM and the TGI (SN12C renal) was 18.6 µM. It also gave a GI50 (SNB-75 CNS) of 0.538 µM, a TGI (SNB-75 CNS) of 5.23 µM and a GI50 (SR leukemia) of 1.39 µM. It also gave a TGI (SR leukemia) of 3 µM, a GI50 (SW-620 colon) of 1.64 µM and a TGI (SW-620 colon) of 3 µM. For the same compound, the GI50 (T-47D breast) was 1.52 µM, the TGI (T-47D breast) was 3.3 µM and the GI50 (TK-10 renal) was 1.36 µM. It also gave a TGI (TK-10 renal) of 2.68 µM, a GI50 (U251 CNS) of 1.53 µM and a TGI (U251 CNS) of 2.86 µM. The GI50 (UACC-62 melanoma) was 1.61 µM, the TGI (UACC-62 melanoma) was 2.96 µM and the GI50 (UO-31 renal) was 1.77 µM. For the same compound, the TGI (UO-31 renal) was 4.91 µM.

With `O=C(Cn1ccnc1[N+](=O)[O-])NCCO` the TGI (786-0 renal) was greater than 100 µM, the TGI (A498 renal) was greater than 100 µM and the TGI (A549 NSCLC) was greater than 100 µM. For the same compound, the TGI (ACHN renal) was greater than 100 µM, the TGI (BT-549 breast) was greater than 100 µM and the TGI (CAKI-1 renal) was greater than 100 µM. For the same compound, the TGI (CCRF-CEM leukemia) was greater than 100 µM, the TGI (COLO 205 colon) was greater than 100 µM and the TGI (DU-145 prostate) was greater than 100 µM. The TGI (EKVX NSCLC) was greater than 100 µM, the TGI (HCC-2998 colon) was greater than 100 µM and the TGI (HCT-116 colon) was greater than 100 µM. It also gave a TGI (HCT-15 colon) greater than 100 µM, a TGI (HL-60(TB) leukemia) greater than 100 µM and a TGI (HOP-62 NSCLC) greater than 100 µM. The TGI (HOP-92 NSCLC) was greater than 100 µM, the TGI (HS 578T breast) was greater than 100 µM and the TGI (HT29 colon) was greater than 100 µM. For the same compound, the TGI (IGROV1 ovarian) was greater than 100 µM, the TGI (K-562 leukemia) was greater than 100 µM and the TGI (KM12 colon) was greater than 100 µM. For the same compound, the TGI (LOX IMVI melanoma) was greater than 100 µM, the TGI (M14 melanoma) was greater than 100 µM and the TGI (MALME-3M melanoma) was greater than 100 µM. For the same compound, the TGI (MCF7 breast) was greater than 100 µM, the TGI (MDA-MB-231 breast) was greater than 100 µM and the TGI (MDA-MB-435) was greater than 100 µM. The TGI (NCI-H226 lung) was greater than 100 µM, the TGI (NCI-H23 lung) was greater than 100 µM and the TGI (NCI-H460 lung) was greater than 100 µM. The TGI (NCI-H522 lung) was greater than 100 µM, the TGI (NCI/ADR-RES ovarian) was greater than 100 µM and the TGI (OVCAR-3 ovarian) was greater than 100 µM. The TGI (OVCAR-4 ovarian) was greater than 100 µM, the TGI (OVCAR-5 ovarian) was greater than 100 µM and the TGI (OVCAR-8 ovarian) was greater than 100 µM. For the same compound, the TGI (PC-3 prostate) was greater than 100 µM, the TGI (RPMI-8226 leukemia) was greater than 100 µM and the TGI (RXF 393 renal) was greater than 100 µM. The TGI (SF-268 CNS) was greater than 100 µM, the TGI (SF-295 CNS) was greater than 100 µM and the TGI (SF-539 CNS) was greater than 100 µM. The TGI (SK-MEL-2 melanoma) was greater than 100 µM, the TGI (SK-MEL-28 melanoma) was greater than 100 µM and the TGI (SK-MEL-5 melanoma) was greater than 100 µM. It also gave a TGI (SK-OV-3 ovarian) greater than 100 µM, a TGI (SN12C renal) greater than 100 µM and a TGI (SNB-19 CNS) greater than 100 µM. It also gave a TGI (SNB-75 CNS) greater than 100 µM, a TGI (SR leukemia) greater than 100 µM and a TGI (SW-620 colon) greater than 100 µM. It also gave a TGI (T-47D breast) greater than 100 µM, a TGI (TK-10 renal) greater than 100 µM and a TGI (U251 CNS) greater than 100 µM. The TGI (UACC-257 melanoma) was greater than 100 µM, the TGI (UACC-62 melanoma) was greater than 100 µM and the TGI (UO-31 renal) was greater than 100 µM.
